# Data taken from ChEMBL document CHEMBL1154835, “Antimicrobial study of newly synthesized 6-substituted indolo[1,2-c]quinazolines” (2010).
# Experiments:
# [1] = test system: Staphylococcus aureus; assay: Antimicrobial activity against Staphylococcus aureus at 1000 ug after 24 hrs by cup plate method; format: functional; conditions: read-out: DIZ
# [2] = test system: Bacillus subtilis; assay: Antimicrobial activity against Bacillus subtilis at 1000 ug after 24 hrs by cup plate method; format: functional; conditions: read-out: DIZ
# [3] = test system: Streptococcus pyogenes; assay: Antimicrobial activity against Streptococcus pyogenes at 1000 ug after 24 hrs by cup plate method; format: functional; conditions: read-out: DIZ
# [4] = test system: Escherichia coli; assay: Antimicrobial activity against Escherichia coli at 1000 ug after 24 hrs by cup plate method; format: functional; conditions: read-out: DIZ
# [5] = test system: Salmonella enterica; assay: Antimicrobial activity against Salmonella Typhimurium at 1000 ug after 24 hrs by cup plate method; format: functional, Salmonella enterica subsp. enterica serovar Typhimurium; conditions: read-out: DIZ
# [6] = test system: Klebsiella pneumoniae; assay: Antimicrobial activity against Klebsiella pneumoniae at 1000 ug after 24 hrs by cup plate method; format: functional; conditions: read-out: DIZ
# [7] = test system: Staphylococcus aureus; assay: Antimicrobial activity against Staphylococcus aureus after 24 hrs by liquid dilution method; format: functional
# [8] = test system: Bacillus subtilis; assay: Antimicrobial activity against Bacillus subtilis after 24 hrs by liquid dilution method; format: functional
# [9] = test system: Streptococcus pyogenes; assay: Antimicrobial activity against Streptococcus pyogenes after 24 hrs by liquid dilution method; format: functional
# [10] = test system: Salmonella enterica; assay: Antimicrobial activity against Salmonella Typhimurium after 24 hrs by liquid dilution method; format: functional, Salmonella enterica subsp. enterica serovar Typhimurium
# [11] = test system: Escherichia coli; assay: Antimicrobial activity against Escherichia coli after 24 hrs by liquid dilution method; format: functional
# [12] = test system: Klebsiella pneumoniae; assay: Antimicrobial activity against Klebsiella pneumoniae after 24 hrs by liquid dilution method; format: functional
# [13] = test system: Aspergillus niger; assay: Antimicrobial activity against Aspergillus niger at 1000 ug after 72 hrs by cup plate method; format: functional; conditions: read-out: DIZ
# [14] = test system: Candida albicans; assay: Antimicrobial activity against Candida albicans at 1000 ug after 72 hrs by cup plate method; format: functional; conditions: read-out: DIZ
# [15] = test system: Trichoderma viride; assay: Antimicrobial activity against Trichoderma viride at 1000 ug after 72 hrs by cup plate method; format: functional; conditions: read-out: DIZ
# [16] = test system: Aspergillus niger; assay: Antimicrobial activity against Aspergillus niger after 24 hrs by liquid dilution method; format: functional
# [17] = test system: Candida albicans; assay: Antimicrobial activity against Candida albicans after 24 hrs by liquid dilution method; format: functional
# [18] = test system: Trichoderma viride; assay: Antimicrobial activity against Trichoderma viride after 24 hrs by liquid dilution method; format: functional
Compound,zone of inhibition at 1000 µg/disc [1] [mm],zone of inhibition at 1000 µg/disc [2] [mm],zone of inhibition at 1000 µg/disc [3] [mm],zone of inhibition at 1000 µg/disc [4] [mm],zone of inhibition at 1000 µg/disc [5] [mm],zone of inhibition at 1000 µg/disc [6] [mm],MIC [7] [µg/mL],MIC [8] [µg/mL],MIC [9] [µg/mL],MIC [10] [µg/mL],MIC [11] [µg/mL],MIC [12] [µg/mL],zone of inhibition at 1000 µg/disc [13] [mm],zone of inhibition at 1000 µg/disc [14] [mm],zone of inhibition at 1000 µg/disc [15] [mm],MIC [16] [µg/mL],MIC [17] [µg/mL],MIC [18] [µg/mL]
CC1(C)S[C@@H]2[C@H](NC(=O)[C@H](N)c3ccccc3)C(=O)N2[C@H]1C(=O)O [AMPICILLIN],48,39,35,40,45,45,10,20,25,10,5,10,–,–,–,–,–,–
c1ccc2c(c1)cc1c3ccccc3nc(-c3ccc(-c4ccncc4)cc3)n21,50,48,42,35,25,42,5,10,15,20,25,30,22,18,21,25,30,25
c1ccc(-c2nc3ccccc3c3cc4ccccc4n23)c(-c2nc3ccccc3c3cc4ccccc4n23)c1,52,40,46,16,18,14,5,20,20,25,20,30,20,13,18,20,35,35
c1ccc2c(c1)cc1c3ccccc3nc(-c3c[nH]c4ccccc34)n21,51,46,49,52,48,49,2.5,15,2.5,2.5,2.5,5,46,49,50,10,5,2.5
c1ccc2c(c1)cc1c3ccccc3nc(-c3ccc(Oc4ccc(-c5nc6ccccc6c6cc7ccccc7n56)cc4)cc3)n21,18,14,13,14,11,21,–,–,–,–,–,–,10,9,18,–,–,–
Cc1ccc2[nH]cc(-c3nc4ccccc4c4cc5ccccc5n34)c2c1,52,42,45,42,46,48,5,10,5,5,2.5,2.5,50,51,46,2.5,20,5
